Measurements as given in patent publication US20240049713A1, “METHOD FOR CONTROLLING HERBICIDE-RESISTANT WEEDS” (SUMITOMO CHEMICAL COMPANY, LIMITED, priority 2020, published 2024).
Like-named read-outs stand apart in the source and are kept apart here.

Tests used:
[1] = system: waterhemp (Amaranthus tuberculatus=Amaranthus rudis=Amaranthus tamariscinus) having Gly210 deficiency in PPO2; assay type: in vivo; conditions: rating 0 to 100, sprayed at plant height 20 cm, 200 L/ha, 1% (w/v) Agri-Dex, evaluated after 14 days in greenhouse
[2] = system: PPO inhibitor-resistant weeds; test: plastic pot tests as Examples 1 to 72 and variants (Examples 73 to 3456)
Method: On the same day, compound X is applied to the surface of soil so that the application rate of the compound X is 10, 20, 40 or 80 g/ha and the spray volume is 200 L/ha. The plastic pot is then placed in a greenhouse, and at 7 days after the application, soybeans are seeded, and further at 14 days after seeding the soybeans, the effect on the weeds and crop injuries on the soybeans are investigated.
On the same day, compound X is applied to the surface of soil so that the application rate of the compound X is 10, 20, 40 or 80 g/ha and the spray volume is 200 L/ha. The soybeans are then cultivated in a greenhouse, and at 21 days after seeding, the effect on the weeds and crop injuries on the soybeans are investigated.
The soybeans are then cultivated in a greenhouse, and at 21 days after seeding, compound X is foliar-treated so that the application rate of the compound X is 10, 20, 40 or 80 g/ha and the spray liquid amount is 200 L/ha. Further, the soybeans are cultivated in the greenhouse, and at 14 days after the application of compound X, the effect on the weeds and crop injuries on the soybeans are investigated.

[3] = as Examples 1 to 216, RoundupPowerMax 32 fluid ounce/acre and XtendiMax 1 pint/acre further added
[4] = applications as in Examples 1 to 72, compound X replaced, 10 to 80 g/ha

Row | SMILES | herbicidal effect ([1]; 20 g/ha) | herbicidal effect ([1]; 40 g/ha) | effect on the weeds [2, 3] | effect on the weeds [2, 4]
1 | CCOC(=O)COC(=O)C1(Oc2cc(-n3c(=O)cc(C(F)(F)F)n(C)c3=O)c(F)cc2Cl)CC1 [Compound X] | 99 | 99 | effective control effect | –
2 | Cn1c(C(F)(F)F)cc(=O)n(-c2cc(OC3(C(=O)OCC(=O)O)CC3)c(Cl)cc2F)c1=O [Compound Z] | – | – | effective control effect | effective control effect
3 | COC(=O)COC(=O)C1(Oc2cc(-n3c(=O)cc(C(F)(F)F)n(C)c3=O)c(F)cc2Cl)CC1 [Compound Y] | – | – | effective control effect | effective control effect
4 | COC(=O)CCNC(=O)C(C)Sc1cc(-n2c(=O)cc(C(F)(F)F)n(C)c2=O)c(F)cc1Cl (stereo not drawn) [Tiafenacil, tiafenacil, reference compound] | 50 | 70 | – | –
